Patent US9708308B2, “Factor IXa inhibitors” (Merck Sharp & Dohme Corp., priority 2012, dated 2017)

Molecular target: Factor IXa (Homo sapiens, UniProt P00740)
Test: Determination of inhibitory activity against Factor IXa (cleavage of fluorescent peptide substrate)
Type: biochemical
Details: cleavage of fluorescent peptide CH3SO2-D-CHG-Gly-Arg-AFC, release of AFC; read-out: FIXa IC50
Description: • (R)—N-(3-aminobenzo[d]isoxazol-6-yl)-2-hydroxy-2-((R)-4-(1-(6-methoxypyridazin-4-yl)-1H-pyrazol-3-yl)-6,6-dimethyl-3-oxomorpholin-2-yl)acetamide. Determination of Inhibitory Activity Against Factor IXa
Formation of a clot to stem bleeding at a site of blood vessel injury involves the coordinated activity of a group of plasma proteins that initiate and propagate fibrin formation and subsequently protect fibrin from premature degradation. Factor IX is a key component of the plasma system that forms a fibrin clot at a site of vascular injury. The activity of Factor IXa is measured by monitoring the cleavage of the fluorescent peptide, CH3SO2-D-CHG-Gly-Arg-AFC.AcOH (“CHG” is cyclohexyl-glycine and “AFC” is trifluoro aminomethyl coumarin). Factor IXa cleaves the amide bond between Arg and AFC, thereby releasing the AFC fluorophore. The free AFC can be detected with a fluorescence detector at an excitation wavelength of 405 nm and emission wavelength of 510 nm.

Chain of Factor IXa (P00740 227-461 limits assumed): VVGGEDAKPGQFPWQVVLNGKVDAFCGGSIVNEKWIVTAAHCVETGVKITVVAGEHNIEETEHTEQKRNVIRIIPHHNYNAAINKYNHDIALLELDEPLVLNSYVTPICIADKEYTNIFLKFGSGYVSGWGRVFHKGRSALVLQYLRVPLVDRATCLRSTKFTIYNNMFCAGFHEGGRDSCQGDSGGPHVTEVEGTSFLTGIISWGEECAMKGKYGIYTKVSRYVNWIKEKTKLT
Chain of Factor IXa (P00740 47-191 partner limits assumed): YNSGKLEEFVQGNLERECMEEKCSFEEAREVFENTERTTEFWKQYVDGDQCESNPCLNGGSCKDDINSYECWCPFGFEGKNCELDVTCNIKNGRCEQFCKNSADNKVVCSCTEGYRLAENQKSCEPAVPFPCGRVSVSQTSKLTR

Row | Compound | IC50 [nM]
1 | CC(C)(O)c1cccc(N2CCO[C@H]([C@@](C)(O)C(=O)Nc3ccc4c(N)noc4c3)C2=O)n1 [Example 65, (R)—N-(3-aminobenzo[d]isoxazol-6-yl)-2-hydroxy-2-((R)-4-(6-(2-hydroxypropan-2-yl)pyridin-2-yl)-3-oxomorpholin-2-yl)propanamide] | 468
2 | Cc1nn(C)c2nc(N3CCO[C@H]([C@@](C)(O)C(=O)Nc4ccc5c(N)noc5c4)C3=O)ccc12 [Example 70, (R)—N-(3-aminobenzo[d]isoxazol-6-yl)-2-((R)-4-(1,3-dimethyl-1H-pyrazolo[3,4-b]pyridin-6-yl)-3-oxomorpholin-2-yl)-2-hydroxypropanamide] | 195
3 | C[C@]1([C@@H](O)C(=O)Nc2ccc3c(N)noc3c2)OCCN(c2cccc(C(F)(F)F)n2)C1=O [Example 72, (R)—N-(3-Aminobenzo[d]isoxazol-6-yl)-2-hydroxy-2-((R)-2-methyl-3-oxo-4-(6-(trifluoromethyl)pyridin-2-yl)morpholin-2-yl)acetamide] | 12.9
4 | CC[C@]1([C@@H](O)C(=O)Nc2ccc3c(N)noc3c2)OCCN(c2cccc(C(F)(F)F)n2)C1=O [Example 74, (R)—N-(3-Aminobenzo[d]isoxazol-6-yl)-2-((R)-2-ethyl-3-oxo-4-(6-(trifluoromethyl)pyridin-2-yl)morpholin-2-yl)-2-hydroxyacetamide] | 408
5 | C[C@]1([C@@H](O)C(=O)Nc2ccc3c(N)noc3c2)OCCN(c2ccn(-c3ccc(=O)n(C(F)F)c3)n2)C1=O [Example 76, (R)—N-(3-Aminobenzo[d]isoxazol-6-yl)-2-((R)-4-(1-(1-(difluoromethyl)-6-oxo-1,6-dihydropyridin-3-yl)-1H-pyrazol-3-yl)-2-methyl-3-oxomorpholin-2-yl)-2-hydroxyacetamide] | 11.1
6 | Cc1cc(N2CCO[C@](C)([C@@H](O)C(=O)Nc3ccc4c(N)noc4c3)C2=O)nn1-c1ccc(=O)n(C(F)F)c1 [Example 77, (R)—N-(3-Aminobenzo[d]isoxazol-6-yl)-2-((R)-4-(1-(1-(difluoromethyl)-6-oxo-1,6-dihydropyridin-3-yl)-5-methyl-1H-pyrazol-3-yl)-2-methyl-3-oxomorpholin-2-yl)-2-hydroxyacetamide] | 26.5
7 | C[C@]1([C@@H](O)C(=O)Nc2ccc3c(N)noc3c2)OCCN(c2nn(-c3ccc(=O)n(C(F)F)c3)cc2F)C1=O [Example 78, (R)—N-(3-Aminobenzo[d]isoxazol-6-yl)-2-((R)-4-(1-(1-(difluoromethyl)-6-oxo-1,6-dihydropyridin-3-yl)-4-fluoro-1H-pyrazol-3-yl)-2-methyl-3-oxomorpholin-2-yl)-2-hydroxyacetamide] | 25.6
8 | C[C@]1([C@@H](O)C(=O)Nc2ccc3c(N)noc3c2)OCCN(c2ccn(-c3ccc(F)cc3)n2)C1=O [Example 79, (R)—N-(3-aminobenzo[d]isoxazol-6-yl)-2-((R)-4-(1-(4-fluorophenyl)-1H-pyrazol-3-yl)-2-methyl-3-oxomorpholin-2-yl)-2-hydroxyacetamide] | 170
9 | C[C@]1([C@@H](O)C(=O)Nc2ccc3c(N)noc3c2)OCCN(c2ccn(-c3ccc(C#N)cc3)n2)C1=O [Example 80, (R)—N-(3-aminobenzo[d]isoxazol-6-yl)-2-((R)-4-(1-(4-cyanophenyl)-1H-pyrazol-3-yl)-2-methyl-3-oxomorpholin-2-yl)-2-hydroxyacetamide] | 25.3
10 | C[C@]1([C@@H](O)C(=O)Nc2ccc3c(N)noc3c2)OCCN(c2ccn(-c3ccc(C(=O)O)cc3)n2)C1=O [Example 82, 4-(3-((R)-2-((R)-2-((3-aminobenzo[d]isoxazol-6-yl)amino)-1-hydroxy-2-oxoethyl)-2-methyl-3-oxomorpholino)-1H-pyrazol-1-yl)benzoic acid] | 32.8
11 | C[C@]1([C@@H](O)C(=O)Nc2ccc3c(N)noc3c2)OCCN(c2ccn(-c3ccc(Cl)cc3)n2)C1=O [Example 83, (R)—N-(3-aminobenzo[d]isoxazol-6-yl)-2-((R)-4-(1-(4-chlorophenyl)-1H-pyrazol-3-yl)-2-methyl-3-oxomorpholin-2-yl)-2-hydroxyacetamide] | 352
12 | C[C@]1([C@@H](O)C(=O)Nc2ccc3c(N)noc3c2)OCCN(c2ccn(-c3ccc(S(C)(=O)=O)cc3)n2)C1=O [Example 84, (R)—N-(3-aminobenzo[d]isoxazol-6-yl)-2-hydroxy-2-((R)-2-methyl-4-(1-(4-(methylsulfonyl)phenyl)-1H-pyrazol-3-yl)-3-oxomorpholin-2-yl)acetamide] | 13.2
13 | C[C@]1([C@@H](O)C(=O)Nc2ccc3c(N)noc3c2)OCCN(c2ccn(-c3ccc(C(F)(F)F)nc3)n2)C1=O [Example 86, (R)—N-(3-aminobenzo[d]isoxazol-6-yl)-2-hydroxy-2-((R)-2-methyl-3-oxo-4-(1-(6-(trifluoromethyl)pyridin-3-yl)-1H-pyrazol-3-yl)morpholin-2-yl)acetamide] | 414
14 | C[C@]1([C@@H](O)C(=O)Nc2ccc3c(N)noc3c2)OCCN(c2ccn(-c3cncc(C(F)(F)F)c3)n2)C1=O [Example 87, (R)—N-(3-aminobenzo[d]isoxazol-6-yl)-2-hydroxy-2-((R)-2-methyl-3-oxo-4-(1-(5-(trifluoromethyl)pyridin-3-yl)-1H-pyrazol-3-yl)morpholin-2-yl)acetamide] | 228
15 | C[C@]1([C@@H](O)C(=O)Nc2ccc3c(N)noc3c2)OCCN(c2ccn(-c3cncc(C#N)c3)n2)C1=O [Example 88, (R)—N-(3-aminobenzo[d]isoxazol-6-yl)-2-((R)-4-(1-(5-cyanopyridin-3-yl)-1H-pyrazol-3-yl)-2-methyl-3-oxomorpholin-2-yl)-2-hydroxyacetamide] | 950
16 | C[C@]1([C@@H](O)C(=O)Nc2ccc3c(N)noc3c2)OCCN(c2ccn(-c3ccncc3)n2)C1=O [Example 89, (R)—N-(3-aminobenzo[d]isoxazol-6-yl)-2-hydroxy-2-((R)-2-methyl-3-oxo-4-(1-(pyridin-4-yl)-1H-pyrazol-3-yl)morpholin-2-yl)acetamide] | 1060
17 | C[C@]1([C@@H](O)C(=O)Nc2ccc3c(N)noc3c2)OCCN(c2ccn(-c3ccncc3F)n2)C1=O [Example 90, (R)—N-(3-aminobenzo[d]isoxazol-6-yl)-2-((R)-4-(1-(3-fluoropyridin-4-yl)-1H-pyrazol-3-yl)-2-methyl-3-oxomorpholin-2-yl)-2-hydroxyacetamide] | 23.5

Continued by falling IC50, values first:

Row | IC50 [nM] | Compound
18 | 690 | COC(=O)c1cc(-n2ccc(N3CCO[C@](C)([C@@H](O)C(=O)Nc4ccc5c(N)noc5c4)C3=O)n2)ccn1 [Example 91, methyl 4-(3-((R)-2-((R)-2-((3-aminobenzo[d]isoxazol-6-yl)amino)-1-hydroxy-2-oxoethyl)-2-methyl-3-oxomorpholino)-1H-pyrazol-1-yl)picolinate]
19 | 574 | C[C@](O)(C(=O)Nc1ccc2c(N)noc2c1)[C@H]1OCCN(c2ccc3cc(C(F)(F)F)ccc3n2)C1=O [Example 68, (R)—N-(3-aminobenzo[d]isoxazol-6-yl)-2-hydroxy-2-((R)-3-oxo-4-(6-(trifluoromethyl)quinolin-2-yl)morpholin-2-yl)propanamide]
20 | 418 | COC(=O)c1ccc(-n2ccc(N3CCO[C@](C)([C@@H](O)C(=O)Nc4ccc5c(N)noc5c4)C3=O)n2)cc1 [Example 81, methyl 4-(3-((R)-2-((R)-2-((3-aminobenzo[d]isoxazol-6-yl)amino)-1-hydroxy-2-oxoethyl)-2-methyl-3-oxomorpholino)-1H-pyrazol-1-yl)benzoate]
21 | 384 | C[C@](O)(C(=O)Nc1ccc2c(N)noc2c1)[C@H]1OCCN(c2ccc3ccncc3n2)C1=O [Example 69, (R)-2-((R)-4-(1,7-naphthyridin-2-yl)-3-oxomorpholin-2-yl)-N-(3-aminobenzo[d]isoxazol-6-yl)-2-hydroxypropanamide]
22 | 368 | C[C@](O)(C(=O)Nc1ccc2c(N)noc2c1)[C@H]1OCCN(c2cc3n(n2)CCC3)C1=O [Example 71, (R)—N-(3-aminobenzo[d]isoxazol-6-yl)-2-((R)-4-(5,6-dihydro-4H-pyrrolo[1,2-b]pyrazol-2-yl)-3-oxomorpholin-2-yl)-2-hydroxypropanamide]
23 | 279 | C[C@]1([C@@H](O)C(=O)Nc2ccc3c(N)noc3c2)OCCN(c2ccn(-c3cccnc3)n2)C1=O [Example 85, (R)—N-(3-aminobenzo[d]isoxazol-6-yl)-2-hydroxy-2-((R)-2-methyl-3-oxo-4-(1-(pyridin-3-yl)-1H-pyrazol-3-yl)morpholin-2-yl)acetamide]
24 | 106 | COc1cc(-n2ccc(N3CCO[C@](C)([C@@H](O)C(=O)Nc4ccc5c(N)noc5c4)C3=O)n2)ccn1 [Example 92, (R)—N-(3-aminobenzo[d]isoxazol-6-yl)-2-hydroxy-2-((R)-4-(1-(2-methoxypyridin-4-yl)-1H-pyrazol-3-yl)-2-methyl-3-oxomorpholin-2-yl)acetamide]
25 | 66.9 | C[C@](O)(C(=O)Nc1ccc2c(N)noc2c1)[C@H]1OCCN(c2cccc(-c3ccnnc3)n2)C1=O [Example 67, (R)—N-(3-aminobenzo[d]isoxazol-6-yl)-2-hydroxy-2-((R)-3-oxo-4-(6-(pyridazin-4-yl)pyridin-2-yl)morpholin-2-yl)propanamide]
26 | 66.1 | C[C@]1([C@@H](O)C(=O)Nc2ccc3c(N)noc3c2)OCCN(c2ccn(-c3ccnc(C#N)c3)n2)C1=O [Example 73, (R)—N-(3-Aminobenzo[d]isoxazol-6-yl)-2-((R)-4-(1-(2-cyanopyridin-4-yl)-1H-pyrazol-3-yl)-2-methyl-3-oxomorpholin-2-yl)-2-hydroxyacetamide]
